Where “and” joins values, the source holds several entries; their conditions need not be identical. Equal entries are not always repeated.
Assays:
[1] = test system: rat uterine decidualization; assay: Rat decidualization assay; assay type: in vivo; conditions: ovariectomized female Sprague-Dawley rats; for Estimated average EC50 (decidual response) / EC50 for uterine weight (decidual response): s.c.; for Estimated average EC50 (decidual response): average of dose-response curves; for EC50 for uterine weight (decidual response): once daily for seven days, individual studies (Exp)
Method: B. Rat decidualization assay • 1. […] Methods: • a. […] The animals were treated once daily for seven days. […] Dosing • Doses were prepared based upon mg/kg mean group body weight. In all studies, a control group receiving vehicle was included. […] The contralateral horn was not scratched and served as an unstimulated control. Approximately 24 hours following the final treatment, rats were sacrificed by CO2 asphyxiation and body weight measured. Uteri were removed and trimmed of fat. Decidualized (D-horn) and control (C-horn) uterine horns were weighed separately. • 3.
Body weight: Mean total animal body weight (default-kg)
Decidual response: [(D−C)/C]×100%

[2] = test system: T47D cells; assay: T47D cell proliferation assay (BrdU incorporation); assay type: cell-based
Method: A. T47D cell proliferation assay • 1. Objective: • Determination of progestational and antiprogestational potency was performed by using a cell proliferation assay in T47D cells. A compound's effect on DAN synthesis in T47D cells was measured. • 2. Methods: • a. Reagents: • Growth medium: DMEM:F12 (1:1) (GIBCO, BRL) supplemented with 10% (v/v) fetal bovine serum (not heat-inactivated), 100 U/mL penicillin, […] streptomycin, and 2 mM GlutaMax (GIBCO, BRL). • Treatment medium: Minimum Essential Medium (MEM) (#51200-038GIBCO, BRL) phenol red-free supplemented with 0.5% charcoal stripped fetal bovine serum, 100 U/mL penicillin, […] streptomycin, and 2 mM GlutaMax (GIBCO, BRL). • b. Cell Culture: • Stock T47 D cells were maintained in growth medium. For BrdU incorporation assay, cells were plated in 96-well plates (Falcon, Becton Dickinson Labware) at 10,000 cells/well in growth medium. […] Cell Proliferation Assay: • At the end of BrdU labeling, the medium was removed and BrdU incorporation was measured using a cell proliferation ELISA kit (#RPN 250, Amersham Life Science) according to manufacturer's instructions. […] Then 25 μL of 1 M sulfuric acid was added to each well to stop color reaction and optical density read in a plate reader at 450 nm within 5 minutes. • 3. […] EC50 or IC50 values were calculated from the retransformed values. […]

| Estimated average EC50 (decidual response) [1] | SMILES | EC50 for uterine weight (decidual response) [1] | other results |
| --- | --- | --- | --- |
| 0.10 mg/kg, s.c. | C#C[C@]1(O)CC[C@H]2[C@@H]3CCC4=CC(=O)CC[C@@H]4[C@H]3C(=C)C[C@@]21CC [3-Ketodesogestrel] | 0.10 mg/kg, s.c. and 0.06 mg/kg, s.c. and 0.11 mg/kg, s.c. | – |
| 0.10 mg/kg, s.c. | C#C[C@]1(O)CC[C@H]2[C@@H]3CCC4=CC(=O)CC[C@@H]4[C@H]3CC[C@@]21CC [Levonorgestrel] | 0.08 mg/kg, s.c. and 0.12 mg/kg, s.c. and 0.09 mg/kg, s.c. (2×) | – |
| – | CC(=O)O[C@]1(C(C)=O)CC[C@H]2[C@@H]3C[C@H](C)C4=CC(=O)CC[C@]4(C)[C@H]3CC[C@@]21C [MPA, medroxyprogesterone acetate] | 0.42 mg/kg, s.c. and 0.39 mg/kg, s.c. (2×) | – |
| – | CC(=O)[C@H]1CC[C@H]2[C@@H]3CCC4=CC(=O)CC[C@]4(C)[C@H]3CC[C@]12C [Progesterone] | 5.50 mg/kg, s.c. | – |
| – | CC#C[C@]1(O)CC[C@H]2[C@@H]3CCC4=CC(=O)CCC4=C3[C@@H](c3ccc(N(C)C)cc3)C[C@@]21C [RU486] | – | IC50 ([2]; read-out: IC50 (half-maximal decrease in trimegestone induced BrdU incorporation), antagonist mode in the presence of 0.03 nM trimegestone, individual studies (Exp)): 0.016 nM and 0.018 nM; IC50 for uterine weight (decrease in EC50 progesterone induced decidual response) ([1]; p.o., with progesterone 5.6 mg/kg, individual studies (Exp.)): 0.21 mg/kg, p.o. and 0.14 mg/kg, p.o. |
| – | C[C@H](O)C(=O)[C@@]1(C)CC[C@H]2[C@@H]3CCC4=CC(=O)CCC4=C3CC[C@@]21C [Trimegestone] | – | EC50 ([2]; agonist mode, individual studies (Exp), read-out: EC50 (half-maximal increase in BrdU incorporation)): 0.017 nM and 0.014 nM and 0.019 nM |
